Test systems include U251 CNS; KM12 colon; CCRF-CEM leukemia; HOP-92 NSCLC; OVCAR-8 ovarian; EKVX NSCLC; MDA-MB-231 breast; HL-60(TB) leukemia; MDA-N; SF-295 CNS; HCT-116 colon; OVCAR-5 ovarian; COLO 205 colon.
Holding throughout (experiment): growth of human tumour cells (NCI), 48 h

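In this assay, cells in 96-well plates receive the compound at five concentrations for 48 hours. Endpoints are linearly interpolated between the surrounding concentrations. TGI: concentration producing complete growth inhibition.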

In the case of `Cc1cc(C)c2c(=O)cc(-c3ccc(Cl)cc3)[nH]c2n1`, the TGI with U251 CNS, in the experiment with KM12 colon, in the experiment on CCRF-CEM leukemia, with HOP-92 NSCLC, in the experiment on OVCAR-8 ovarian and with EKVX NSCLC was greater than 100 µM in each case. Moreover, the TGI in the experiment with MDA-MB-231 breast was greater than 51.8 µM; with HL-60(TB) leukemia, greater than 83 µM; with MDA-N, 25 µM; in the experiment on SF-295 CNS, greater than 73.3 µM; with HCT-116 colon it was greater than 63.4 µM; in the experiment with OVCAR-5 ovarian, greater than 100 µM. Moreover, the TGI with COLO 205 colon was greater than 55.6 µM.
As to `CCOC(=O)c1sc2nc(SC)nc(Nc3ccc4c(c3)OCCCO4)c2c1N`, the TGI in the experiment on U251 CNS, in the experiment with KM12 colon, in the experiment with CCRF-CEM leukemia, with HOP-92 NSCLC, in the experiment with OVCAR-8 ovarian and with EKVX NSCLC was greater than 100 µM throughout. Besides, the TGI with MDA-MB-231 breast was greater than 100 µM; in the experiment on HL-60(TB) leukemia, greater than 100 µM; with MDA-N, greater than 100 µM; in the experiment on SF-295 CNS it was 53.9 µM; with HCT-116 colon it was greater than 100 µM; with OVCAR-5 ovarian, greater than 100 µM. The compound also returned a TGI in the experiment with COLO 205 colon greater than 100 µM.
For `c1ccc(COCC23CCN(Cc4ccccc4)C(CC(OCc4ccccc4)C2)S3)cc1` (stereo not drawn), the TGI in the experiment on U251 CNS is greater than 100 µM; with KM12 colon, greater than 100 µM; in the experiment with CCRF-CEM leukemia it was greater than 100 µM; in the experiment with HOP-92 NSCLC, 87.4 µM; with OVCAR-8 ovarian it was greater than 100 µM; in the experiment on EKVX NSCLC, greater than 100 µM. Also, the TGI with MDA-MB-231 breast was greater than 100 µM; with HL-60(TB) leukemia, 45.4 µM; with MDA-N, greater than 100 µM; with SF-295 CNS, greater than 100 µM; in the experiment with HCT-116 colon, greater than 100 µM; with OVCAR-5 ovarian, greater than 100 µM. The TGI in the experiment with COLO 205 colon is greater than 100 µM.
As for `COc1cc(-c2c[nH]c3ccccc23)nc(-c2c[nH]c3ccccc23)n1`, the TGI in the experiment with U251 CNS came out at 14.9 µM; in the experiment on KM12 colon, 16.2 µM; with CCRF-CEM leukemia, 3.08 µM; with HOP-92 NSCLC, 8.53 µM; in the experiment on OVCAR-8 ovarian, 19.3 µM; in the experiment on EKVX NSCLC, 19 µM. Moreover, the TGI in the experiment on MDA-MB-231 breast came out at 8 µM; in the experiment on HL-60(TB) leukemia it was 12.9 µM; in the experiment with MDA-N, 14.2 µM; in the experiment with SF-295 CNS, 12.7 µM; in the experiment with HCT-116 colon, 13.6 µM; with OVCAR-5 ovarian, 22.1 µM. In the experiment with COLO 205 colon, this compound gave a TGI of 20.8 µM.
Consider `CCCCCCCCCCCCCCCCOP(=O)(O)OP(=O)(O)OCC1OC(n2ccc(N)nc2=O)CC1O` (stereo not drawn), for which the TGI in the experiment with U251 CNS, with KM12 colon, in the experiment on CCRF-CEM leukemia, in the experiment on HOP-92 NSCLC, with OVCAR-8 ovarian and in the experiment on EKVX NSCLC was greater than 100 µM each time. In addition, the TGI with MDA-MB-231 breast, with HL-60(TB) leukemia, in the experiment with MDA-N, in the experiment on SF-295 CNS, in the experiment with HCT-116 colon and in the experiment on OVCAR-5 ovarian was greater than 100 µM throughout. Moreover, the TGI with COLO 205 colon was greater than 100 µM.
`CC1(C)C(O)c2ccccc2OC1N1CCN(C2Oc3ccccc3C(O)C2(C)C)CC1` (stereo not drawn): the TGI in the experiment with U251 CNS, in the experiment with KM12 colon, in the experiment with CCRF-CEM leukemia, in the experiment on HOP-92 NSCLC, in the experiment on OVCAR-8 ovarian and in the experiment on EKVX NSCLC was greater than 100 µM each time. For the same compound, the TGI in the experiment with MDA-MB-231 breast, with HL-60(TB) leukemia, in the experiment on MDA-N, in the experiment on SF-295 CNS, in the experiment on HCT-116 colon and in the experiment on OVCAR-5 ovarian was greater than 100 µM throughout. Also, the TGI in the experiment on COLO 205 colon was greater than 100 µM.
As for `O=C1CC2[C@@H](N3CCCC3)CCC(N1Cc1ccccc1)C2(O)O` (stereo partly drawn), the TGI in the experiment on U251 CNS, with KM12 colon, with CCRF-CEM leukemia, in the experiment on HOP-92 NSCLC, in the experiment on OVCAR-8 ovarian and in the experiment with EKVX NSCLC was greater than 100 µM in each case. The TGI in the experiment on MDA-MB-231 breast, in the experiment with HL-60(TB) leukemia, in the experiment with MDA-N, in the experiment on SF-295 CNS, with HCT-116 colon and in the experiment on OVCAR-5 ovarian was greater than 100 µM each time. This compound also registered a TGI with COLO 205 colon greater than 100 µM.
As to `CN(C)c1ccc(N=Nc2cccc3ccoc23)cc1`, the TGI with U251 CNS, in the experiment on KM12 colon, in the experiment with CCRF-CEM leukemia, in the experiment with HOP-92 NSCLC, in the experiment on OVCAR-8 ovarian and in the experiment on EKVX NSCLC was greater than 100 µM in each case. The TGI in the experiment with MDA-MB-231 breast is greater than 100 µM; with HL-60(TB) leukemia, greater than 74.7 µM; in the experiment with MDA-N, greater than 100 µM; with SF-295 CNS, greater than 100 µM; with HCT-116 colon, greater than 100 µM; with OVCAR-5 ovarian, greater than 100 µM. For the same compound, the TGI in the experiment with COLO 205 colon is greater than 100 µM.
As to `NCC(=O)C(O)C(O)C(O)CO` (stereo not drawn), the TGI in the experiment with U251 CNS, in the experiment with KM12 colon, with CCRF-CEM leukemia, with HOP-92 NSCLC, in the experiment with OVCAR-8 ovarian and in the experiment with EKVX NSCLC was greater than 100 µM throughout. The TGI with MDA-MB-231 breast, with HL-60(TB) leukemia, in the experiment on MDA-N, with SF-295 CNS, with HCT-116 colon and with OVCAR-5 ovarian was greater than 100 µM in each case. This compound also returned a TGI in the experiment on COLO 205 colon greater than 100 µM.
Turning to `O=C(NO)c1cccc(OCc2ccc(Br)cc2)c1`, the TGI was greater than 53.8 µM in the experiment on U251 CNS; greater than 64.9 µM with KM12 colon; greater than 20 µM in the experiment on CCRF-CEM leukemia; 46.7 µM in the experiment with HOP-92 NSCLC; 17.4 µM in the experiment with OVCAR-8 ovarian; greater than 79.3 µM with EKVX NSCLC. The TGI in the experiment with MDA-MB-231 breast was 86.3 µM; in the experiment with HL-60(TB) leukemia, 21.9 µM; in the experiment on MDA-N, 27.5 µM; with SF-295 CNS, greater than 62.1 µM; with HCT-116 colon, 15.2 µM; in the experiment with OVCAR-5 ovarian, greater than 70.7 µM. Also, in the experiment on COLO 205 colon, the TGI was determined as 27.4 µM.
Consider `O=C(NNC(=S)Nc1ccccc1)C12CC3CC(CC(C3)C1)C2`, for which the TGI in the experiment on U251 CNS was greater than 100 µM; with KM12 colon it was greater than 100 µM; in the experiment with CCRF-CEM leukemia it was greater than 53.5 µM; in the experiment on HOP-92 NSCLC, 95.8 µM; in the experiment with OVCAR-8 ovarian, greater than 100 µM; in the experiment on EKVX NSCLC, greater than 100 µM. The TGI in the experiment with MDA-MB-231 breast was greater than 100 µM; with HL-60(TB) leukemia, 37.7 µM; in the experiment on MDA-N, greater than 100 µM; with SF-295 CNS it was greater than 100 µM; with HCT-116 colon it was greater than 94.3 µM; in the experiment on OVCAR-5 ovarian, greater than 100 µM. This compound returned a TGI in the experiment with COLO 205 colon greater than 73.2 µM.
With `COC(=O)c1ccccc1C1CN=NC12Cc1c(C)cc(C)cc1C2=O` (stereo not drawn), the TGI with U251 CNS, in the experiment with KM12 colon, with CCRF-CEM leukemia, in the experiment with HOP-92 NSCLC, in the experiment on OVCAR-8 ovarian and in the experiment on EKVX NSCLC was greater than 100 µM each time. Moreover, the TGI in the experiment with MDA-MB-231 breast, in the experiment on HL-60(TB) leukemia, with MDA-N, in the experiment on SF-295 CNS, in the experiment with HCT-116 colon and with OVCAR-5 ovarian was greater than 100 µM throughout. Also, the TGI with COLO 205 colon was greater than 100 µM.
Consider `COC(=O)c1cc(C#N)[nH]c1-c1ccsc1`, for which the TGI in the experiment with U251 CNS, with KM12 colon, with CCRF-CEM leukemia, with HOP-92 NSCLC, in the experiment on OVCAR-8 ovarian and in the experiment with EKVX NSCLC was greater than 100 µM in each case. Moreover, the TGI is greater than 100 µM in the experiment on MDA-MB-231 breast; 48.7 µM in the experiment on HL-60(TB) leukemia; greater than 100 µM in the experiment on MDA-N; greater than 100 µM with SF-295 CNS; greater than 100 µM in the experiment on HCT-116 colon; greater than 100 µM in the experiment on OVCAR-5 ovarian. The same compound showed a TGI in the experiment on COLO 205 colon greater than 100 µM.
For the compound `Cc1ccc2c(c1)C(=O)/C(=C1/CCc3ccc(C)cc31)C2`, the TGI in the experiment with U251 CNS, in the experiment on KM12 colon, with CCRF-CEM leukemia, with HOP-92 NSCLC, in the experiment with OVCAR-8 ovarian and in the experiment with EKVX NSCLC was greater than 100 µM each time. Further, the TGI in the experiment with MDA-MB-231 breast, with HL-60(TB) leukemia, in the experiment with MDA-N, in the experiment with SF-295 CNS, in the experiment on HCT-116 colon and with OVCAR-5 ovarian was greater than 100 µM in each case. In the experiment with COLO 205 colon, this compound returned a TGI greater than 100 µM.
As to `O=C(OCc1ccccc1)N1CCNCCNCC1`, the TGI with U251 CNS, in the experiment on KM12 colon, in the experiment on CCRF-CEM leukemia, in the experiment on HOP-92 NSCLC, in the experiment with OVCAR-8 ovarian and in the experiment on EKVX NSCLC was greater than 100 µM throughout. The TGI in the experiment with MDA-MB-231 breast, with HL-60(TB) leukemia, with MDA-N, in the experiment on SF-295 CNS, in the experiment on HCT-116 colon and with OVCAR-5 ovarian was greater than 100 µM throughout. In the experiment with COLO 205 colon, this compound registered a TGI greater than 100 µM.
With `CC(=O)C1(c2ccccc2)CCN(Cn2sc3nc(C)cc(C)c3c2=O)CC1`, the TGI in the experiment with U251 CNS was greater than 100 µM; in the experiment with KM12 colon, greater than 100 µM; in the experiment on CCRF-CEM leukemia it was greater than 100 µM; with HOP-92 NSCLC it was greater than 100 µM; in the experiment with OVCAR-8 ovarian it was 74.6 µM; in the experiment on EKVX NSCLC, 58.1 µM. Also, the TGI is greater than 100 µM in the experiment with MDA-MB-231 breast; 52.5 µM with HL-60(TB) leukemia; 41 µM in the experiment on MDA-N; greater than 100 µM with SF-295 CNS; 52 µM with HCT-116 colon; 39 µM in the experiment with OVCAR-5 ovarian. In addition, in the experiment on COLO 205 colon, the TGI is 33.8 µM.
